Measured values as given in patent US6897019B1, “Methods for treating and preventing insulin resistance and related disorders” (priority 1998, dated 2005).
“Also recorded” adds a separate entry of the source.

What was measured:
[1] = test system: 3T3-L1 adipocytes; assay: Lipolysis (glycerol in culture medium) of 3T3-L1 adipocytes with or without TNF-α; type: cell-based, Mouse; conditions: for increase in glycerol accumulation versus untreated controls: last 24 hours of 5-day treatment
Experimental: 3T3-L1 adipocytes used in this example were obtained from 3T3-L1 fibroblasts as follows. 3T3-L1 fibroblasts (ATCC Deposit NO. CL-173, described in U.S. Pat. No. 4,003,789) were cultured in Dulbecco's Modified Eagle's Medium (DMEM) containing 10% bovine calf serum, and induced to differentiate into adipocytes using standard protocols, as described, e.g., in Kohanski et al. (1996) J. Biol. Chem. 261:12272. Adipocytes were used 10-15 days after the differentiation protocol was initiated.
Differentiated 3T3-L1 adipocytes cultured in 12 well plates were incubated overnight in DMEM+0.5% BSA in the absence of serum. The following morning, the cells were incubated in the presence or absence of 2 mM or 20 mM sodium salicylate (NaSal) and treated with recombinant murine TNF-α (m TNF-α; Genzyme; Cambridge, Mass.) with or without 17 μM 15-deoxy-^12,14-PGJ2 (“PGJ2”; Cayman Chemical; Ann Arbor, Mich.) or 10 μM BRL 49653 (“BRL”; Smith Kine Beecham (Hamish Ross) (King of Prussia, Pa.)) for 24 hours. The glycerol content in the culture medium was determined using a colorimetric assay (GPO-Trinder, Sigma, St Louis, […].). Protein content was determined using the BCA (bicinchonic acid) protein assay (Pierce, Rockford, Ill.). The results are indicated as nmol glycerol per mg protein.
Accordingly, 3T3-L1 adipocytes were treated with BRL at 10 μM, 1 μM or 1 nM and TNF-α as described above, and the amount of glycerol was determined after 24 hours.
3T3-L1 adipocytes were treated with TNF-α (2 or 10 ng/ml), TNF-α plus BRL at 10 μM, TNF-α plus PGJ2 at 15 μM, or BRL or PGJ2 alone for 5 days. The media was replaced everyday and collected on day 5 to measure accumulation of glycerol.
[…] The glycerol content in the culture medium was determined as described above.
3T3-L1 adipocytes prepared as described in Example 1 were preincubated with various amounts (0-50 μM) of the p38 kinase inhibitor SB203580 and then treated with 10 ng/ml TNF-α for 24 hours and the amount of glycerol in the culture medium determined as described above. […]

[2] = test system: JNK-1; assay: JNK-1 kinase assay (c-jun substrate) on extracts of treated 3T3-L1 adipocytes; type: cell-based, Mouse; conditions: 3 days 17 μM PGJ2, then 15 minutes 10 ng/ml TNF-α
Experimental: 3T3-L1 adipocytes were pretreated for 3 hours with or without 20 mM NaSal, with or without 100 μM MAP kinase kinase (MEK) inhibitor PD98059 (Biomol; Cat. No. EI-360) and then for 15 minutes with 10 ng/ml mTNF-α. JNK-1 kinase assays were then performed with extracts of each of these cell cultures on an N-terminal portion of c-jun, as described in Derjarde et al. (1994) Cell 76: 1025.
(§1) 3T3-L1 adipocytes prepared as described in Example 1 were pretreated for 3 hours with or without 20 mM NaSal or 100 μM PD98059 and then treated for 15 minutes with or without 10 ng/ml mTNF-α and with or without 10 μM BRL. Cell extracts were then prepared and used in ERK 1/2 kinase and JNK-1 kinase assays, as described above.
(§2) 3T3-L1 cells were pretreated for 3 days with 17 μM of PGJ2 and then for 15 minutes with 10 ng/ml TNF-α. The amount of phosphorylated (thus activated) JNK-1, ERK1/2, and p38 was determined by Western blot using an antibody specifically recognizing phosphorylated forms of the proteins. As a control, the total amount of JNK-1, ERK1/2 and p38 protein was determined by Western blot using an antibody recognizing the phosphorylated and non phosphorylated forms of the protein. The activity of ERK1/2 and JNK kinases was also determined in a kinase assay using MBP and a portion of c-jun, respectively, as substrate.

[3] = test system: ERK1/2; assay: ERK 1/2 kinase assay (MBP substrate) on extracts of treated 3T3-L1 adipocytes; type: cell-based, Mouse
Experimental: In this example, 3T3-L1 cells were treated as described in Example 2, and cell extracts were used in an ERK 1/2 kinase assay, using MBP (myelin basic protein) as a substrate. The assay used is described in Boulton et al. (1991) Cell Reg. 2: 357.
as §1, §2

[4] = test system: ERK1/2; assay: Western blot of phosphorylated ERK1/2 in 3T3-L1 cells; type: cell-based, Mouse; conditions: 3 days 17 μM PGJ2, then 15 minutes 10 ng/ml TNF-α
Experimental: as §2

[5] = test system: JNK-1; assay: Western blot of phosphorylated JNK-1 in 3T3-L1 cells; type: cell-based, Mouse; conditions: 3 days 17 μM PGJ2, then 15 minutes 10 ng/ml TNF-α
Experimental: as §2

[6] = test system: p38; assay: Western blot of phosphorylated p38 in 3T3-L1 cells; type: cell-based, Mouse; conditions: 3 days 17 μM PGJ2, then 15 minutes 10 ng/ml TNF-α
Experimental: as §2

[7] = test system: 3T3-L1 adipocytes; assay: Catecholamine (isoproterenol)-induced glycerol release from 3T3-L1 adipocytes; type: cell-based, Mouse; conditions: BRL or PGJ2
[8] = Ehrman et al. 1997; cited from earlier work
[9] = test system: perilipin A; assay: Western blot of perilipin A protein in 3T3-L1 adipocytes; type: cell-based, Mouse; conditions: TNF-α 10 ng/ml, 24 hours
Experimental: 3T3-L1 adipocytes were treated with TNF-α at 10 ng/ml, TNF-α plus BRL (10 μM), or BRL alone for 24 hours, following which cell lysates were collected and analyzed by Western blotting using antibodies against HSL and perilipin A proteins. Perilipin antibodies were generated by immunization of rabbits with a peptide identical to amino acids 9-23 of the rat perilipin protein (Greenberg et al. (1993) PNAS 90:12035). Antibodies to HSL were prepared by injecting a peptide based upon the rat HSL sequence (GeneBank) (KDLSFKGNSPEPSDSPEMC; SEQ ID NO: 1) into rabbits. Antibodies were subsequently affinity purified and used for Western blotting at a dilution of 1:1500. Western blotting was performed as follows: adipocytes are briefly rinsed with 1 ml of phosphate saline buffer (PBS, pH 7.4). Proteins were extracted by adding 200 μl of lysis buffer containing 50 mM Hepes, pH 7.4, 100 mM Nacl, 2 mM EDTA, 5% SDS, 0.1 mM Na3V) 4 , 50 mM NaF, 1 mM benzamidine, 100 μM AEBSF, adn 10 μg/ml aprotinin. Equivalent amounts of protein were separated by 10% SDS-PAGE, electrophoretically transferred to nitrocellulose membranes, incubated with primary antibody and subsequentely with donkey anti-rabbit IgG conducaged with horseradish peroxidase. Proteins were detected with enhanced chemiluminescence (ECL) system (Amersham). […]

[10] = test system: HSL; assay: Western blot of HSL protein in 3T3-L1 adipocytes; type: cell-based, Mouse; conditions: TNF-α 10 ng/ml, 24 hours
Experimental: 3T3-L1 adipocytes were treated with TNF-α at 10 ng/ml, TNF-α plus BRL (10 μM), or BRL alone for 24 hours, following which cell lysates were collected and analyzed by Western blotting using antibodies against HSL and perilipin A proteins. Perilipin antibodies were generated by immunization of rabbits with a peptide identical to amino acids 9-23 of the rat perilipin protein (Greenberg et al. (1993) PNAS 90:12035). Antibodies to HSL were prepared by injecting a peptide based upon the rat HSL sequence (GeneBank) (KDLSFKGNSPEPSDSPEMC; SEQ ID NO: 1) into rabbits. Antibodies were subsequently affinity purified and used for Western blotting at a dilution of 1:1500. Western blotting was performed as follows: adipocytes are briefly rinsed with 1 ml of phosphate saline buffer (PBS, pH 7.4). Proteins were extracted by adding 200 μl of lysis buffer containing 50 mM Hepes, pH 7.4, 100 mM Nacl, 2 mM EDTA, 5% SDS, 0.1 mM Na3V) 4 , 50 mM NaF, 1 mM benzamidine, 100 μM AEBSF, adn 10 μg/ml aprotinin. Equivalent amounts of protein were separated by 10% SDS-PAGE, electrophoretically transferred to nitrocellulose membranes, incubated with primary antibody and subsequentely with donkey anti-rabbit IgG conducaged with horseradish peroxidase. Proteins were detected with enhanced chemiluminescence (ECL) system (Amersham).

CCCCC/C=C/C=C1/C(=O)C=C[C@@H]1C/C=C\CCCC(=O)O [PGJ2, 15-deoxy-^12,14-PGJ2]
inhibition of TNF-α induced lipolysis ([1]; 10 μM BRL or 17 μM PGJ2, TNF-α 2 or 10 ng/ml, 24 hours): significantly inhibited; also recorded: inhibit | blocked share of the increase in glycerol release due to TNF-α ([1]; 5 days, BRL 10 μM or PGJ2 15 μM, TNF-α 2 or 10 ng/ml, last 24 hours): about 100% | glycerol accumulation versus control (untreated) cells ([1]; BRL or PGJ2 alone, 5 days): not different from levels measured in control | further reduction of lipolysis when added to NaSal ([1]; added to cells incubated with 20 mM NaSal, TNF-α, 24 hours): did not further reduce lipolysis | TNF-α induced increase in JNK-1 kinase activity [2]: to a lesser extent | TNF-α induced increase in ERK1/2 kinase activity ([3]; 3 days 17 μM PGJ2, then 15 minutes 10 ng/ml TNF-α): significantly inhibits | phosphorylation of ERK1/2 [4]: significantly reduces | phosphorylation of JNK-1 [5]: significantly reduces | phosphorylation of p38 [6]: significantly reduces | block of isoproterenol-induced glycerol release [7]: neither BRL nor PGJ2 was able to block

C[S+]([O-])c1ccc(-c2nc(-c3ccncc3)c(-c3ccc(F)cc3)[nH]2)cc1 (stereo not drawn) [SB203580]
release of glycerol from the adipocytes ([1]; SB203580 0-50 μM preincubation, then 10 ng/ml TNF-α 24 hours): increases the release of glycerol | concentration up to which glycerol release is proportional to the amount added ([1]; SB203580, 10 ng/ml TNF-α 24 hours): ≤ 20 µM

Cc1c(C)c2c(c(C)c1O)CCC(C)(COc1ccc(CC3SC(=O)NC3=O)cc1)O2 (stereo not drawn) [troglitazone, 5-[[4-[(3,4-dihydro-6-hydroxy-2,5,7,8-tetramethyl-2H-1-benzopyran-2-yl)methoxy]phenyl]methyl]-2,4-thiazolidinedione]
efficacy in PCOS [8]: effective

TNF-α
increase in glycerol accumulation versus untreated controls ([1]; 2 ng/ml TNF-α): ~10 fold | increase in glycerol accumulation versus untreated controls ([1]; 10 ng/ml TNF-α): ~13 fold | increase in phosphorylation of the MBP substrate (ERK1/2 activation) ([3]; 10 ng/ml TNF-α, 15 minutes): seven | expression of perilipin A protein versus untreated controls [9]: markedly decreased | HSL protein expression versus untreated controls [10]: slightly decreased
